{
  "source": "patent US6177475A",
  "about": "“Methods of using integrin modulators for treatment of inflammation” (priority 1997, dated 2001)",
  "key": {"[1]": {"system": "MT-2 cells / K562/VCAM-1 cells (HTLV-I)", "experiment": "Syncytium formation of HTLV-I-infected MT-2 cells with K562/VCAM-1 cells", "assay_type": "cell-based", "conditions": "3.4 micromoles per liter; higher concentrations not tested", "text": "MT-2 cells harbor the complete genome of human T cell lymphotropic virus type 1 (HTLV-I), and they transmit the virus to susceptible uninfected cells in cocultures. The transmission manifests itself as fusion of MT-2 cells with the uninfected cells, followed by syncytium formation. K562 cells transfected with VCAM-1, a ligand of the integrin VIA-4, were used as a fusion partner for MT-2 cells. MT-2 and K562/VCAM-1 cells were washed and resuspended in complete RPMI medium at a density of 2×10^6 /ml. MT2 cells were seeded into flat-bottom 96-well microtiter plates (100 microliters per well). Serial dilutions of Ajoene or of the disintegrin kistrin (final concentration) were introduced into the wells, and the plate was incubated for 30 min prior to addition of 100 microliters of K562/VCAM-1 cells. The plates were then incubated for 4 h before scoring syncytium formation."}, "[2]": {"system": "lymphocyte infiltration into the pancreata", "experiment": "Spontaneous development of autoimmune diabetes in NOD mice (lymphocyte infiltration of pancreata)", "assay_type": "in vivo, Nonobese diabetic (NOD) mice", "conditions": "0.3 mg/kg i.p. every other day, 9 weeks", "text": "(§1) Nonobese diabetic (NOD) mice are characterized by spontaneous development of insulitis (similar to human insulin-dependent diabetes) and sialoadenitis (similar to Sjogren's disease). The development of autoirmune inflammation in these animals involves several integrin receptors, including VLA-4, CR3, and LFA-1 (CD11a/CD18). Lymphocyte infiltration into the pancreata is mediated primarily by VIA-4, whereas the predominant mechanism of lymphocyte recruitment into the salivary glands involves LFA-1.\n(§2) NOD mice (age, 3 to 4 weeks old; average body weight, 10 g) were divided into three groups. Experimental animals received intraperitoneal injections of disintegrins (0.3 mg/kg per animal every other day) for 9 weeks. Control mice were administered with the vehicle.\n(§3) The mice were sacrificed and subjected to autopsy. The pancreata and salivary glands were removed and frozen (-70° C.). Thin sections (5 micrometer thick) of these organs were fixed in acetone, stained with hematoxylin and eosin, and evaluated microscopically for lymphocyte infiltration (Tables 6 and 7)."}, "[3]": {"system": "lymphocyte infiltration into the salivary glands", "experiment": "Spontaneous development of autoimmune sialoadenitis in NOD mice (lymphocyte infiltration of salivary glands)", "assay_type": "in vivo, Nonobese diabetic (NOD) mice", "conditions": "0.3 mg/kg i.p. every other day, 9 weeks", "text": "as §1, §2, §3"}, "[4]": {"conditions": "pancreas, (+) 1-3 infiltrated islets"}, "[5]": {"conditions": "pancreas, (-) no infiltrating lymphocytes"}, "[6]": {"conditions": "(+) 1-3 small foci involving only one duct"}, "[7]": {"conditions": "(+++) 2 or more foci involving several ducts"}, "[8]": {"conditions": "(-) no infiltrating lymphocytes"}},
  "data": [
    {"substance": "Kistrin", "values": [
      {"measurement": "inhibition of syncytium formation", "setting": "[1]", "result": "~ 40%"},
      {"measurement": "development of large infiltrates in pancreatic islets", "setting": "[2]", "result": "completely prevented the development of large infiltrates"},
      {"measurement": "proportion of animals with mild infiltration of pancreatic islets", "setting": "[2]", "result": "increased the proportion of animals with mild infiltration of pancreatic islets"},
      {"measurement": "Number of mice with infiltration score (+)", "setting": "[2]; [4]", "result": 2, "unit": "mice"},
      {"measurement": "Percentage of mice with infiltration score (+)", "setting": "[2]; [4]", "result": 40, "unit": "%"},
      {"measurement": "Number of mice with infiltration score (++)", "setting": "[2]; pancreas, (++) 4 islets with moderate infiltration and/or 1-2 islets with large infiltrates", "result": 0, "unit": "mice"},
      {"measurement": "Number of mice with infiltration score (+++)", "setting": "[2]; pancreas, (+++) 3 or more large infiltrates", "result": 0, "unit": "mice"},
      {"measurement": "Number of mice with infiltration score (-)", "setting": "[2]; [5]", "result": 3, "unit": "mice"},
      {"measurement": "Percentage of mice with infiltration score (-)", "setting": "[2]; [5]", "result": 60, "unit": "%"},
      {"measurement": "Number of mice with infiltration score (+)", "setting": "[3]; [6]", "result": 2, "unit": "mice"},
      {"measurement": "Percentage of mice with infiltration score (+)", "setting": "[3]; [6]", "result": 40.0, "unit": "%"},
      {"measurement": "Number of mice with infiltration score (++)", "setting": "[3]; (++) small foci and/or 1 large focus involving several ducts", "result": 0, "unit": "mice"},
      {"measurement": "Number of mice with infiltration score (+++)", "setting": "[3]; [7]", "result": 1, "unit": "mice"},
      {"measurement": "Percentage of mice with infiltration score (+++)", "setting": "[3]; [7]", "result": 20.0, "unit": "%"},
      {"measurement": "Number of mice with infiltration score (-)", "setting": "[3]; [8]", "result": 2, "unit": "mice"},
      {"measurement": "Percentage of mice with infiltration score (-)", "setting": "[3]; [8]", "result": 40.0, "unit": "%"}
    ]}
  ]
}
